Assay results reported in patent US20260374773A1, “MULTI-CYCLIC IRAK AND FLT3 INHIBITING COMPOUNDS AND USES THEREOF” (CHILDREN'S HOSPITAL MEDICAL CENTER, priority 2022, published 2026).
pIC50: −log10 of the molar value.

target: T1, FLT3 (Homo sapiens, UniProt P36888); assay: NanoBRET target engagement assay in HEK-293 cells, FLT3; assay type: cell-based; settings: Table 14; live HEK-293 cells, 1 h
T1 sequence (P36888 27-993): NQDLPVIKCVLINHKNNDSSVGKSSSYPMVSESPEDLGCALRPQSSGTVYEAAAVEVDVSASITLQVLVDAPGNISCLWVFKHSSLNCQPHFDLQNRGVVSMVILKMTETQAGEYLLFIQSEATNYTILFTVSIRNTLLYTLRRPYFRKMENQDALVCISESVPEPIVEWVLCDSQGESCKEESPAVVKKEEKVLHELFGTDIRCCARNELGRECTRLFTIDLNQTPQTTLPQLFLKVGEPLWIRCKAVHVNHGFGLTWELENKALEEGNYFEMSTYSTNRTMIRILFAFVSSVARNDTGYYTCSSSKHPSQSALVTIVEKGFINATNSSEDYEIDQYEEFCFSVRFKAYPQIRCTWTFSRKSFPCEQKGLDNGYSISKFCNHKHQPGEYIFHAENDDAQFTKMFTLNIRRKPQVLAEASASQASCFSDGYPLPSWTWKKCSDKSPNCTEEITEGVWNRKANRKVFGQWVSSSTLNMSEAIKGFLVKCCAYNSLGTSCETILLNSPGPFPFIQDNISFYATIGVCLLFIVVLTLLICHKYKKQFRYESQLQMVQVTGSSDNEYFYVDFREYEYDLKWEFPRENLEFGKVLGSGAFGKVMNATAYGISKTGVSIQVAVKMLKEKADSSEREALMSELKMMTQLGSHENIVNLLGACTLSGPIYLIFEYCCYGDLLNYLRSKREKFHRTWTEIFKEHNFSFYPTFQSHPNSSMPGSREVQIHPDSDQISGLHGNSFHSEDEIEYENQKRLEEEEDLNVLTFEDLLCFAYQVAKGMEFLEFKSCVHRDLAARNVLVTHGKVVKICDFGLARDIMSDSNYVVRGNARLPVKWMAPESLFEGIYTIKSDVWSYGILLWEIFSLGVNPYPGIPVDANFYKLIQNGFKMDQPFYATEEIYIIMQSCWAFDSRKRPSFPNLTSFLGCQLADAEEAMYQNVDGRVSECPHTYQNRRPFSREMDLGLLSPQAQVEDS
From the text: The NanoBRET assay measures kinase engagement in real time in the context of the intact cell. Unlike the previously described biochemical kinase assay methodology, the NanoBRET assay measures the binding and activity characteristics under equilibrium conditions using full-length kinases in the presence of cellular concentrations of ATP in live, uncompromised cells. As such, the assay provides a more relevant assessment of kinase potency and selectivity that would be expected to be observed in the native cellular environment, where potency is often considerably lower than that observed in the isolated biochemical assays (Vasta, J. D. et al., (2018) Cell Chem. Biol. 25, 206-214). The assay uses a Kinase-NanoLuc® fusion vector expressing a kinase protein to which a luciferase tag has been added, a cell-permeant fluorescent NanoBRET™ tracer, a NanoLuc® substrate, and an extracellular NanoLuc® inhibitor. Upon expression of the luciferase-tagged kinase, cells will produce a strong BRET signal only in the presence of the NanoBRET™ tracer. The extracellular NanoLuc® inhibitor ensures that the BRET signal observed emanates only from live cells. Because the BRET signal has tight distance constraints, addition of the test compound will decrease the BRET signal if the compound competes with the NanoBRET™ tracer for binding to the kinase domain. Under the appropriate tracer conditions established by the manufacturer, quantitative intracellular affinity and relative potency can then be determined using Mass Action model equations.
HEK-293 cells were purchased from ATCC. FuGENEHD Transfection Reagent, Kinase-NanoLucfusion plasmids, Transfection Carrier DNA, NanoBRETTracers and dilution buffer, NanoBRETNano-Glo Substrate, Extracellular NanoLucInhibitor were obtained from Promega.
Assays were conducted following Promega assay protocol with some modifications. HEK-293 Cells were transiently transfected with Kinase-NanoLucFusion Vector DNA by FuGENEHD Transfection Reagent. Testing compounds were delivered into 384 well assay plate by Echo 550 (LabcyteInc, Sunnyvale, CA). Transfected cells were harvested and mixed with NanoBRETTracer Reagent and dispensed into 384 well plates and incubated at 37 °C in 5% CO2 cell culture incubator for 1 hour. The NanoBRETNano-Glo Substrate plus Extracellular NanoLucInhibitor Solution were added into the wells of the assay plate and incubated for 2-3 minutes at room temperature. The donor emission wavelength (460 nm) and acceptor emission wavelength (600 nm) were measured in the En Visionplate reader. The BRET Ratios were calculated.
BRET Ratio=[(Acceptor sample÷Donor sample)−(Acceptor no-tracer control÷Donor no-tracer control)].
The IC50 values of compounds were calculated with Prism GraphPad program.
• 1). Cultivate HEK-293 cells (70-80% confluence) appropriately prior to assay. Trypsinize and collect HEK-293 cells. • 2). Prepare lipid:DNA complexes as follows: • a. Prepare a 10 μg/ml solution of DNA in Opti-MEM without serum that consists of the following ratios of carrier DNA and DNA encoding NanoLuc® fusion. 9.0 μg/mL of Transfection Carrier DNA, 1.0 μg/mL of NanoLuc fusion vector DNA and 1 mL of Opti-MEM without phenol red. Mix thoroughly. • b. Add 30 μl of FuGENE HD Transfection Reagent into each milliliter of DNA mixture to form lipid:DNA complex. • c. Mix by inversion 10 times. • d. Incubate at ambient temperature for 20 minutes to allow complexes to form. • 3). In a sterile, conical tube, mix 1 part of lipid:DNA complex with 20 parts of HEK-293 cells in suspension. Mix gently by inversion 5 times. • 4). Dispense cells+lipid:DNA complex into a sterile tissue culture dish and incubate for 22-24 hours.
Each test compound is delivered from the compound source plate to the wells of 384-well white NBS plate by Echo 550.
3. Preparation of Cells with NanoBRET™ Tracer Reagent • 1). Remove medium from dish with transfected HEK-293 cells via aspiration, trypsinize and allow cells to dissociate from the dish. • 2). […]

| SMILES | pIC50 |
| --- | --- |
| COc1cn2ncc(-c3cccc(N[C@H]4CNCC[C@@H]4F)n3)c2nc1C1CC1 [Compound 21, 6-(5-cyclopropyl-6-methoxypyrazolo[1,5-a]pyrimidin-3-yl)-N-((3S,4S)-4-fluoropiperidin-3-yl)pyridin-2-amine] | 9.22 |
| COc1cn2ncc(-c3ccc(F)c(N[C@@H]4CCCNC4)n3)c2nc1C1CC1 [Compound 5, (R)-6-(5-cyclopropyl-6-methoxypyrazolo[1,5-a]pyrimidin-3-yl)-3-fluoro-N-(piperidin-3-yl)pyridin-2-amine] | 8.05 |
| COc1cn2ncc(-c3nc(N[C@H]4CNCC[C@@H]4F)ccc3F)c2nc1C1CC1 [Compound 3, 6-(5-cyclopropyl-6-methoxypyrazolo[1,5-a]pyrimidin-3-yl)-5-fluoro-N-((3S,4S)-4-fluoropiperidin-3-yl)pyridin-2-amine] | > 9.30 |

The next lines start with the values.

| pIC50 | SMILES |
| --- | --- |
| 6.49 | COc1cn2ncc(-c3nc(N[C@H]4CNC[C@@H]4F)c(F)cc3F)c2nc1C(C)(C)O [Compound 12, 2-(3-(3,5-difluoro-6-(((3S,4S)-4-fluoropyrrolidin-3-yl)amino)pyridin-2-yl)-6-methoxypyrazolo[1,5-a]pyrimidin-5-yl)propan-2-ol] |
| > 9.30 | COc1cn2ncc(-c3nc(N[C@H]4CNCC[C@@H]4F)c(F)cc3F)c2nc1C1CC1 [Compound 22, 6-(5-cyclopropyl-6-methoxypyrazolo[1,5-a]pyrimidin-3-yl)-3,5-difluoro-N-((3S,4S)-4-fluoropiperidin-3-yl)pyridin-2-amine] |
| 8.40 | COc1cn2ncc(-c3nc(N[C@H]4CNCC[C@@H]4F)c(F)cc3F)c2nc1C(C)(C)O [Compound 13, 2-(3-(3,5-difluoro-6-(((3S,4S)-4-fluoropiperidin-3-yl)amino)pyridin-2-yl)-6-methoxypyrazolo[1,5-a]pyrimidin-5-yl)propan-2-ol] |
| 8.30 | COc1cn2ncc(-c3nc(N[C@@H]4CCCNC4)c(F)cc3F)c2nc1C(C)(C)O [Compound 11, (R)-2-(3-(3,5-difluoro-6-(piperidin-3-ylamino)pyridin-2-yl)-6-methoxypyrazolo[1,5-a]pyrimidin-5-yl)propan-2-ol] |
| > 9.30 | COc1cn2ncc(-c3ccc(F)c(N[C@H]4CNCC[C@@H]4F)n3)c2nc1C1CC1 [Compound 6, 6-(5-cyclopropyl-6-methoxypyrazolo[1,5-a]pyrimidin-3-yl)-3-fluoro-N-((3S,4S)-4-fluoropiperidin-3-yl)pyridin-2-amine] |

same assay, conditions: Table 20; live HEK-293 cells, 1 h

| SMILES | pIC50 |
| --- | --- |
| COc1cn2ncc(-c3nc(N[C@@H]4CCCNC4)ncc3F)c2nc1C1CC1 [Compound 14a, (R)-4-(5-cyclopropyl-6-methoxypyrazolo[1,5-a]pyrimidin-3-yl)-5-fluoro-N-(piperidin-3-yl)pyrimidin-2-amine] | > 9.30 |
| COc1cn2ncc(-c3cncc(N[C@@H]4CCCNC4)n3)c2nc1C1CC1 [Compound 11a, (R)-6-(5-cyclopropyl-6-methoxypyrazolo[1,5-a]pyrimidin-3-yl)-N-(piperidin-3-yl)pyrazin-2-amine] | 8.70 |
| COc1cn2ncc(-c3ccnc(N[C@H]4CNC[C@@H]4F)n3)c2nc1C1CC1 [Compound 8a, 4-(5-cyclopropyl-6-methoxypyrazolo[1,5-a]pyrimidin-3-yl)-N-((3S,4S)-4-fluoropyrrolidin-3-yl)pyrimidin-2-amine] | 7.96 |
| COc1cn2ncc(-c3cncc(N[C@H]4CNCC[C@@H]4F)n3)c2nc1C1CC1 [Compound 12a, 6-(5-cyclopropyl-6-methoxypyrazolo[1,5-a]pyrimidin-3-yl)-N-((3S,4S)-4-fluoropiperidin-3-yl)pyrazin-2-amine] | 9.00 |
| COc1cn2ncc(-c3nc(N[C@H]4CNC[C@@H]4F)ncc3F)c2nc1C1CC1 [Compound 13a, 4-(5-cyclopropyl-6-methoxypyrazolo[1,5-a]pyrimidin-3-yl)-5-fluoro-N-((3S,4S)-4-fluoropyrrolidin-3-yl)pyrimidin-2-amine] | 9.30 |
| COc1cn2ncc(-c3ccnc(N[C@H]4CNCC[C@@H]4F)n3)c2nc1C1CC1 [Compound 7a, 4-(5-cyclopropyl-6-methoxypyrazolo[1,5-a]pyrimidin-3-yl)-N-((3S,4S)-4-fluoropiperidin-3-yl)pyrimidin-2-amine] | 8.05 |

Now from value to compound:

| pIC50 | SMILES |
| --- | --- |
| 8.70 | COc1cn2ncc(-c3nc(N[C@H]4CNCC[C@@H]4F)ncc3F)c2nc1C1CC1 [Compound 15a, 4-(5-cyclopropyl-6-methoxypyrazolo[1,5-a]pyrimidin-3-yl)-5-fluoro-N-((3S,4S)-4-fluoropiperidin-3-yl)pyrimidin-2-amine] |
| 7.28 | COc1cn2ncc(-c3nc(N[C@@H]4CCCNC4)ncc3F)c2nc1C(C)(C)O [Compound 4a, (R)-2-(3-(5-fluoro-2-(piperidin-3-ylamino)pyrimidin-4-yl)-6-methoxypyrazolo[1,5-a]pyrimidin-5-yl)propan-2-ol] |
| 7.92 | COc1cn2ncc(-c3nc(N[C@H]4CNCC[C@@H]4F)ncc3F)c2nc1C(C)(C)O [Compound 6a, 2-(3-(5-fluoro-2-(((3S,4S)-4-fluoropiperidin-3-yl)amino)pyrimidin-4-yl)-6-methoxypyrazolo[1,5-a]pyrimidin-5-yl)propan-2-ol] |
| 5.82 | COc1cn2ncc(-c3ccnc(N[C@H]4CNCC[C@@H]4F)n3)c2nc1C(C)(C)O [Compound 3a, 2-(3-(2-(((3S,4S)-4-fluoropiperidin-3-yl)amino)pyrimidin-4-yl)-6-methoxypyrazolo[1,5-a]pyrimidin-5-yl)propan-2-ol] |
| 6.95 | COc1cn2ncc(-c3nc(N[C@H]4CNC[C@@H]4F)ncc3F)c2nc1C(C)(C)O [Compound 5a, 2-(3-(5-fluoro-2-(((3S,4S)-4-fluoropyrrolidin-3-yl)amino)pyrimidin-4-yl)-6-methoxypyrazolo[1,5-a]pyrimidin-5-yl)propan-2-ol] |
